Laboratory results: US8513409B2, “Introverted CB[n] compounds” (University of Maryland, priority 2005, dated 2013)

What was measured:
[1] = conc. HCl 100° C., reported by Day and co-workers; cited from earlier work
[2] = Solubility of CB[n] in water, aqueous MeOH, HCl and Na2SO4 solutions; type: physicochemical; conditions: for solubility in 50% aqueous MeOH solution (v/v): 50% aqueous MeOH (v/v)
Procedure: CB[5]. […] By washing the crude solids repeatedly with large volumes of water a mixture of CB[5] and CB[7] was isolated. […] The solubility of CB[7] is less than 4 mg/mL in this solution. By extracting the solid mixture of CB[5] and CB[7] with 50% aq. MeOH CB[5] is separated from CB[7].
CB[8]. […] By washing the crude mixture of CB[6], CB[8], CB[5]@CB[10], introverted CB[6], and CB[8] with 3 M HCl CB[8] is isolated as an insoluble solid.
Introverted CB[6]. […] Na2SO4 which allows it to be isolated as an insoluble solid by washing and filtration.
Subsequent purification. The separation of each component (CB[5], CB[6], CB[7], CB[8], and iCB[6]) from Crop 1 and Crop 2 was enabled due to their differential solubility in HCl solutions. • CB[5] and CB[7]. […] By washing the crude mixture of CB[6], Cb[8], and iCB[6] with 3.5 M HC1 it is possible to isolate Cb[8] as an insoluble solid. • iCB[6] and CB[6]. CB[6] and iCB[6] were separated by fractional crystallization from different concentration HC1 solutions. For example, the initial CB[6]/iCB[6] mixture was recrystallized from a minimum volume of conc. HC1. The filtrate is enriched in iCB[n]; adding the filtrate to MeOH gives the precipitate which is filtered and dried. The solid now enriched in iCB[6] is recrystallized from 17.5% HC1 which gives CB[6] as a solid and filtrate further enriched in iCB[6]. In this manner, the ratio of iCB[6];CB[6] is raised to ≈80:20. At this point, the mixture is dissolved in a minimum of conc. HC1. To this solution is added enough H2N(CH2)6NH2 to complex all of the CB[6] (≈25%). This solution is then diluted 5-fold with H20. The precipitate is isolated by centrifugation and washed several times with H2O which yields iCB[6] as a white solid in 2% overall yield.

[3] = 1H NMR competition of CB[6] and i-CB[6] (1:1) for guest 1; type: binding; conditions: slight excess of 1 added to CB[6] and i-CB[6] (1:1)
Procedure: (§1) FIG. 6 illustrates ^1HNMR spectra recorded for: a)) i-CB[6], CB[6] and 1 in a ratio of 1:1:2 (0.5M NaCl), and b) i-CB[7], 1 and 2 in a ratio of 1:1:1 (500 MHz, D2O), RT).
(§2) Because of their smaller cavities and more open portals i-CB[6] and i-CB[7] bind most guest molecules less tightly than their CB[n] counterparts do. For example, when a light excess of 1 is added to a solution containing CB[6] and i-CB[6] Alkyl ammonium ions such as 2 are known to bind tightly to CB[6] with values of Ka in the μM range. In contrast, 2 bind less strongly to i-CB[6] […] Similarly, i-CB[7] retains the ability to bind to guests commonly bound to CB[7]1,8 (e.g. 1.2, and (ferrocenemethyl)trimethylammonium ion (3)) but with lower affinity and higher kinetic liability. The association constants (Ka) for the guests 1, 2, and 3 with i-CB[7] measured by isothermal titration calorimetry (ITC) are (9±1)×10^6 M^−1, (8.8±0.9)×10^5 M^−1, and (2.2±0.1)×10^6 M^−1, respectively, which are 2 to 6 order of magnitude lower than those with CB[7].

[4] = Isothermal titration calorimetry of i-CB[7] with guest 1; type: binding; conditions: ITC, water, 30° C.
Procedure: as §2
(§3) General. […] Melting points were measured on a Meltemp apparatus in open capillary tubes and are uncorrected. IR spectra were recorded on a Nicolet Magna or on a Perkin Elmer Spectrum GX FT-IR spectrophotometers as KBr pellets and are reported in cm^−1. NMR spectra were measured on a Bruker AM400 or on a Bruker DRX500 spectrometers operating at 400 or 500 MHz for ^1H and 100 or 125 MHz for ^13C. […] The formation constants for the inclusion of several guests in iCB[7] were determined by isothermal titration calorimetry using a VP-ITC instrument from MicroCal. […]

[5] = 1H NMR competition of guests 1 and 2 for i-CB[7]; type: binding; conditions: 1 and 2 in ratio 1:1:1
From the text: as §1
For example, i-CB[7] binds aromatic guest 1 more strongly than linear aliphatic guest 2. […] Thus, the inverted glycoluril unit modulates guest binding affinity and rates of dissociation, both of which are of critical importance in the creation of CB[n] based molecular machines.

[6] = Isothermal titration calorimetry of i-CB[7] with guest 3; type: binding; conditions: ITC, water, 30° C.
Procedure: FIG. 23 is a thermogram (top) and binding isotherm (bottom) of (ferrocenemethyl) trimethyl ammonium in complexing with i-CB[7] at 303K.
Because of their smaller cavities and more open portals i-CB[6] and i-CB[7] bind most guest molecules less tightly than their CB[n] counterparts do. For example, when a light excess of 1 is added to a solution containing CB[6] and i-CB[6] Alkyl ammonium ions such as 2 are known to bind tightly to CB[6] with values of Ka in the μM range. In contrast, 2 bind less strongly to i-CB[6] […] The association constants (Ka) for the guests 1, 2, and 3 with i-CB[7] measured by isothermal titration calorimetry (ITC) are (9±1)×10^6 M^−1, (8.8±0.9)×10^5 M^−1, and (2.2±0.1)×10^6 M^−1, respectively, which are 2 to 6 order of magnitude lower than those with CB[7].
as §3

[7] = Stability of CB[n] and i-CB[n] on heating in acid (product resubmission); type: physicochemical; conditions: purified compound heated in conc. DCl
From the text: The fact that the isomerization of methylene bridged glycoluril dimmers follows mechanism 3 is not only useful in the synthesis of our compounds, but is important for the tailored synthesis of CB[n] and its derivatives. For example, Day and co-workers have recently shown that heating purified CB[8] in conc. […] (Scheme 3). In contrast, pure CB[5], CB[6], and CB[7] are stable under these conditions. […] This type of reaction would likely follow a pathway related to mechanism 1. […] In aqueous acid, it is likely that H2O can compete with the internal N and O nucleophiles of mechanism 3 for the capture of 19 (Scheme 2), effectively forcing fragmentation of the methylene bridges by a variation of mechanism 1. In the absence of competing nucleophiles, under anhydrous acidic conditions, CB[n] (n>8) and derivatives display enhanced stability. This facilitates the preparation of higher CB[n] compounds in a controllable manner when using anhydrous acidic conditions where water-sensitive functional groups are present. If such groups are not present acidic aqueous conditions may be used.
By “anhydrous acidic conditions,” we mean that in initial attempts “standard conditions” (ClCH2CH2Cl, anh. PTSA, reflux) are used, and if solubility problems occur then neat anhydrous PTSA (m.p. 38° C.) and/or CH3SO3H may be used. Based on results, CB[8] is stable to these conditions as depicted in Scheme 3. […]

[8] = Isothermal titration calorimetry of i-CB[7] with guest 2; type: binding; conditions: ITC, water, 30° C.
Procedure: as §2, §3

O=C1N2CN3C(=O)N4CN5C(=O)N6CN7C(=O)N8CN9C(=O)N%10CN1C1C2N2CN%11C(=O)N(CN%12C(=O)N(CN%13C(=O)N(CN%14C(=O)N(CN1C2=O)C%10C9%14)C8C7%13)C6C5%12)C4C3%11 (stereo not drawn) [CB[5]]
stability on heating in conc. HCl [1]: stable | solubility in 50% aqueous MeOH solution (v/v) [2]: about 33 mg/mL | solubility in water [2]: moderate solubility

O=C1N2CN3C(=O)N4CN5C(=O)N6CN7C(=O)N8CN9C(=O)N%10CN%11C(=O)N%12CN1C1C2N2CN%13C(=O)N(CN%14C(=O)N(CN%15C(=O)N(CN%16C(=O)N(CN%17C(=O)N(CN1C2=O)C%12C%11%17)C%10C9%16)C8C7%15)C6C5%14)C4C3%13 (stereo not drawn) [CB[6]]
stability on heating in conc. HCl [1]: stable | solubility in 3 M HCl solution ([2]; 3 M HCl): appreciable solubility | solubility in 3.5 M HCl solution ([2]; 3.5 M HCl): appreciable solubility | share of host that forms a complex with guest 1 [3]: almost all

O=C1N2CN3C(=O)N4CN5C(=O)N6CN7C(=O)N8CN9C(=O)N%10CN%11C(=O)N%12CN%13C(=O)N%14CN1C1C2N2CN%15C(=O)N(CN%16C(=O)N(CN%17C(=O)N(CN%18C(=O)N(CN%19C(=O)N(CN%20C(=O)N(CN1C2=O)C%14C%13%20)C%12C%11%19)C%10C9%18)C8C7%17)C6C5%16)C4C3%15 (stereo not drawn) [CB[7]]
stability on heating in conc. HCl [1]: stable | solubility in 50% aqueous MeOH solution (v/v) [2]: less than 4 mg/mL | solubility in water [2]: moderate solubility

i-CB[7]
association constant (Ka) for guest 1 [4]: (9±1)×10^6 M^−1 | guest preference in presence of 1 equiv 1 and 2 [5]: the majority of i-CB[7] forms a complex with 1 | association constant (Ka) for guest 3 [6]: (2.2±0.1)×10^6 M^−1 | outcome of heating in conc. DCl [7]: a 4:1 mixture of CB[6], and CB[7] was obtained | association constant (Ka) for guest 2 [8]: (8.8±0.9)×10^5 M^−1
